System: PTEN-P2 mouse cells
Assay: Orthotopic prostate cancer survival study, PTEN-P2 cells in Fox1/Nu mice
Type: in vivo
Protocol: Orthotopic injection of PTEN-P2 and TRAMP-C2 for survival studies: Mice were anaesthetized and an incision was made through the skin and peritoneum. A total of 30,000 cells were suspended in Matrigel and slowly injected into the dorsal lobe of the prostate using a 30-gauge needle. Matrigel was used to prevent the leakage of cells out of the site of injection. A Q-tip was held over the injection site for 1 min to prevent bleeding and spill after removal of the needle. The abdominal wall was closed by surgical silk sutures.
Fox1/Nu or C57BL/6J mice were used as recipients for PTEN-P2 and TRAMP-C2 cells, respectively. Mice were surgically castrated 6 weeks later, when tumors were established, and Compound I treatment was initiated 4-5 days later. The number of days mice lived following treatment initiation was recorded for each animal. A few mice were found dead upon daily inspection, while others were euthanized in agreement with our IACUC regulations, including mice showing weight losses of more than 15% and mice showing signs of pain though posture and lack of grooming were euthanized.
An orthotopic model of prostate cancer in which 30,000 PTEN-P2 mouse cells were injected into the prostate of Fox1/Nu mice was used. Mice were castrated 5 weeks after the PTEN-P2 mouse cells were injected into the prostate, which allowed the tumors to become established. […] The number of days mice lived following treatment initiation was recorded for each animal.

Structure (SMILES): CC1=CC(=O)c2c(O)cccc2C1=O [Compound I, 5-hydroxy-2-methylnaphthalene-1,4-dione]
- Survival, combination with castration vs castration alone (oral 1 mg/kg/day in Carrier A plus castration, p=0.01): survived significantly longer
- Survival, Compound I alone vs castration alone (oral 1 mg/kg/day in Carrier A, p=0.118): not statistically different
- Survival, combination with castration vs untreated control (oral formulation plus castration, p=0.042): survived longer
- Survival, Compound I alone vs untreated control (p=0.296): not statistically different
